Assay [1] deals with T1, Gag-Pol polyprotein (Human immunodeficiency virus type 1 group M subtype B (isolate NY5), UniProt P12497). Kind of assay: 3'-Processing Assay. An excerpt: (§1) A recently reported time-resolved fluorescence assay [J. Biol. Chem. 287: 21189-21203] was used to quantify IN 3'-processing and strand transfer activities.
Assay [2] addresses T2, Gag-Pol polyprotein [A1275T] (Human immunodeficiency virus type 1 group M subtype B (isolate NY5), UniProt P12497, A1275T). Kind of assay: 3'-Processing Assay.
From the text: as §1

For assay [3], the target named is T1, Gag-Pol polyprotein. Kind of assay: Strand Trasnfer Assay.
From the text: as §1

Assay [4] concerns the target T2, Gag-Pol polyprotein [A1275T]. Kind of assay: Strand Trasnfer Assay.
From the text: as §1

In general, IC50 refers to the concentration at which inhibition is half-maximal. Read a low IC50 as greater potency. In the case of `CO[C@H](C(=O)O)c1c(C)nc2ccc(Br)cc2c1-c1ccc(Cl)cc1`, the IC50 against Gag-Pol polyprotein [1] came to 910 nM; in assay [2], 261000 nM; against Gag-Pol polyprotein [3] it was 400 nM; in assay [4] it was 4610 nM.
As to `Cc1nc2ccc(Br)cc2c(-c2ccc(Cl)cc2)c1C(OC(C)(C)C)C(=O)O` (stereo not drawn) [ALLINI-2], the half-inhibitory concentration (IC50) amounted to 180 nM at Gag-Pol polyprotein [1], 200000 nM in assay [2], 170 nM at Gag-Pol polyprotein [3] and 890 nM in assay [4].

Values taken from BindingDB's records for doi:10.1074/jbc.M112.443390 (The Ohio State University, 2013).
